Assay results as given in patent publication US4371532A, “Malonamidooxadethiacephem compounds” (Shionogi & Co., Ltd., priority 1980, dated 1983).
Each block holds one compound with its values, some of them ahead of it.

Tests used:
P. aeruginosa CN-5 = experiment: Protection of mice from infection caused by Pseudomonas aeruginosa CN-5; type: in vivo; conditions: CN5, ip, inoculation = 7 × 10^3, two subc. inj. (mg/kg each) 1 and 5 hrs after intraperitoneal inoculation
Experimental: Five representative compounds in the preceding examples are assayed for protection of mice from infection caused by Pseudomonas aeruginosa to give the effects as in the following table. | two subc. inj. (given mg/kg each) 1 and 5 | hrs after intraperitoneal inoculation | *inoculation = 7 × 10^3 -

P. aeruginosa PS-24 = experiment: Protection of mice from infection caused by Pseudomonas aeruginosa PS-24; type: in vivo; conditions: PS24, ip, inoculation = 1 × 10^4, two subc. inj. (mg/kg each) 1 and 5 hrs after intraperitoneal inoculation
Experimental: Five representative compounds in the preceding examples are assayed for protection of mice from infection caused by Pseudomonas aeruginosa to give the effects as in the following table. | two subc. inj. (given mg/kg each) 1 and 5 | hrs after intraperitoneal inoculation | **inoculation = 1 × 10^4

Escherichia coli EC-14 = experiment: Minimal inhibitory concentration in vitro by serial dilution method on Mueller Hinton agar; type: cell-based; conditions: disodium salts (10), E. coli EC-14, Mueller Hinton agar

Compound: CCC(C(=O)O)C(=O)NC1(OC)C(=O)N2C(C(=O)O)=C(CSc3nnnn3C)COC21 (centres unmarked) [compound 2]
ED50 (P. aeruginosa CN-5): 22.2 mg/kg
ED50 (P. aeruginosa PS-24): 17.7 mg/kg

Compound: COC1(NC(=O)C(C(=O)O)c2ccc(O)cc2)C(=O)N2C(C(=O)O)=C(CSc3nnnn3C)COC21 (centres unmarked) [Reference, reference compound]
ED50 (P. aeruginosa CN-5): 44.5 mg/kg
ED50 (P. aeruginosa PS-24): 20.4 mg/kg

Compound: CCC(C(=O)O)C(=O)NC1(OC)C(=O)N2C(C(=O)O)=C(CSc3nncs3)COC21 (centres unmarked) [Het=Tdz No. 2]
MIC (Escherichia coli EC-14; EC14, Het=Tdz): 0.2 µg/mL

Compound: COC1(NC(=O)C(C)C(=O)O)C(=O)N2C(C(=O)O)=C(CSc3nncs3)COC21 (centres unmarked) [compound 3]
ED50 (P. aeruginosa CN-5): 33.8 mg/kg
ED50 (P. aeruginosa PS-24): 12.6 mg/kg

Compound: COC1(NC(=O)C(C)C(=O)O)C(=O)N2C(C(=O)O)=C(CSc3nnnn3C)COC21 (centres unmarked) [compound 1]
ED50 (P. aeruginosa CN-5): 22.3 mg/kg
ED50 (P. aeruginosa PS-24): 11.1 mg/kg

Compound: COC1(NC(=O)CC(=O)O)C(=O)N2C(C(=O)O)=C(CSc3nnnn3C)COC21 (centres unmarked) [Het=Tetr No. 1]
MIC (Escherichia coli EC-14; EC14, Het=Tetr): 1.56 µg/mL

Compound: CCCCC(C(=O)O)C(=O)NC1(OC)C(=O)N2C(C(=O)O)=C(CSc3nncs3)COC21 (centres unmarked) [Het=Tdz No. 4]
MIC (Escherichia coli EC-14; EC14, Het=Tdz): 0.39 µg/mL

Compound: CCC(C(=O)O)C(=O)NC1(OC)C(=O)N2C(C(=O)O)=C(CSc3nncs3)COC21 (centres unmarked) [compound 4]
ED50 (P. aeruginosa CN-5): 32.5 mg/kg
ED50 (P. aeruginosa PS-24): 15.5 mg/kg

Compound: CCCCCCC(C(=O)O)C(=O)NC1(OC)C(=O)N2C(C(=O)O)=C(CSc3nnnn3C)COC21 (centres unmarked) [Het=Tetr No. 7]
MIC (Escherichia coli EC-14; EC14, Het=Tetr): 12.5 µg/mL

Compound: CCCC(C(=O)O)C(=O)NC1(OC)C(=O)N2C(C(=O)O)=C(CSc3nncs3)COC21 (centres unmarked) [Het=Tdz No. 3]
MIC (Escherichia coli EC-14; EC14, Het=Tdz): 0.2 µg/mL

Compound: C=CCC(C(=O)O)C(=O)NC1(OC)C(=O)N2C(C(=O)O)=C(CSc3nncs3)COC21 (centres unmarked) [Het=Tdz No. 5]
MIC (Escherichia coli EC-14; EC14, Het=Tdz): 0.39 µg/mL

Compound: COC1(NC(=O)C(C)C(=O)O)C(=O)N2C(C(=O)O)=C(CSc3nncs3)COC21 (centres unmarked) [Het=Tdz No. 1]
MIC (Escherichia coli EC-14; EC14, Het=Tdz): 0.39 µg/mL

The next lines start with the values.

MIC (Escherichia coli EC-14; EC14, Het=Tetr): 0.2 µg/mL
Compound: C=CCC(C(=O)O)C(=O)NC1(OC)C(=O)N2C(C(=O)O)=C(CSc3nnnn3C)COC21 (centres unmarked) [Het=Tetr No. 8]

MIC (Escherichia coli EC-14; EC14, Het=Tetr): 0.2 µg/mL
Compound: COC1(NC(=O)C(C)C(=O)O)C(=O)N2C(C(=O)O)=C(CSc3nnnn3C)COC21 (centres unmarked) [Het=Tetr No. 2]

MIC (Escherichia coli EC-14; EC14, Het=Tetr): 0.1 µg/mL
Compound: CCC(C(=O)O)C(=O)NC1(OC)C(=O)N2C(C(=O)O)=C(CSc3nnnn3C)COC21 (centres unmarked) [Het=Tetr No. 3]

MIC (Escherichia coli EC-14; EC14, Het=Tetr): 0.1 µg/mL
Compound: CCCC(C(=O)O)C(=O)NC1(OC)C(=O)N2C(C(=O)O)=C(CSc3nnnn3C)COC21 (centres unmarked) [Het=Tetr R=n-C3 H7]

MIC (Escherichia coli EC-14; EC14, Het=Tetr): 0.39 µg/mL
Compound: COC1(NC(=O)C(CC(C)C)C(=O)O)C(=O)N2C(C(=O)O)=C(CSc3nnnn3C)COC21 (centres unmarked) [Het=Tetr No. 6]

MIC (Escherichia coli EC-14; EC14, Het=Tetr): 0.39 µg/mL
Compound: COC1(NC(=O)C(C(=O)O)C(C)C)C(=O)N2C(C(=O)O)=C(CSc3nnnn3C)COC21 (centres unmarked) [Het=Tetr No. 5]
